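Interpolation was linear, between the two tested concentrations surrounding the appropriate level; five concentrations were tested over 48 hours in 96-well plates. TGI denotes the concentration required for complete inhibition of growth.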 Some results are limits rather than exact numbers.

TGI data for 12 molecules are collected here from PubChem BioAssay (NCI).

Common to all, as to assay: NCI anticancer screen, dose series, 48 h
Assay [1] relates to SN12C renal.
The subject of assay [2] is MDA-MB-435.
In assay [3] the test system is SNB-19 CNS.
Assay [4] has as its system COLO 205 colon.
Assay [5] has as its system CCRF-CEM leukemia.
For assay [6], the system named is LOX IMVI melanoma.
Assay [7] deals with SK-MEL-28 melanoma.
Assay [8] has as its system NCI/ADR-RES ovarian.
Assay [9] relates to 786-0 renal.
In assay [10] the test system is OVCAR-5 ovarian.
Assay [11] deals with SF-295 CNS.

In the case of `CCOC(=O)C(=O)/C(=C/N1C(=O)CC(=O)NC1=S)C(=O)OCC`, the TGI in [1], in assay [2], in assay [3], in [4], in assay [5] and in assay [6] was greater than 100 µM throughout. Also, the TGI in [7], in assay [8], in [9], in [10] and in assay [11] was greater than 100 µM throughout.
Regarding `O=c1[nH]c(=O)n(C2OC(CO)C(O)C2O)cc1Oc1ccccc1` (configuration not stated), the TGI in assay [1], in [2], in [3], in assay [4], in assay [5] and in [6] was greater than 100 µM each time. Besides, the TGI in assay [7], in [8], in [9], in assay [10] and in [11] was greater than 100 µM in each case.
As for `CSc1ccc(/C=C2\N=C(c3ccccc3)N(c3nc4cc(C)c(C)cc4s3)C2=O)cc1`, the TGI in assay [1] is 72.4 µM; in assay [2], 37.7 µM; in assay [3], 83.9 µM; in assay [4], greater than 100 µM; in [5], 34.6 µM; in [6] it was 44.7 µM. Besides, the TGI in assay [7] is greater than 100 µM; in assay [8], greater than 100 µM; in assay [9], 61.6 µM; in assay [10], 67.9 µM; in [11], greater than 100 µM.
`COC(=O)C1=C(C)C=C(N2CCOCC2)C(C(=O)OC)C1c1ccccc1` (configuration not stated): the TGI in assay [1], in assay [2], in [3], in [4], in assay [5] and in assay [6] was greater than 10 µM throughout. For the same molecule, the TGI in assay [7], in assay [8], in assay [9], in assay [10] and in assay [11] was greater than 10 µM throughout.
Turning to `C1CC[C@H]2SSC3CCCC[C@H]3SSC2C1` (some centres not stated), the TGI in assay [1], in assay [2], in [3], in [4], in assay [5] and in [6] was greater than 100 µM throughout. The TGI in assay [7], in assay [8], in assay [9], in [10] and in assay [11] was greater than 100 µM each time.
As to `COC1OC(COC(=O)c2cc(O)c(O)c(O)c2)C(OC(=O)c2cc(O)c(O)c(O)c2)C(OC(=O)c2cc(O)c(O)c(O)c2)C1OC(=O)c1cc(O)c(O)c(O)c1` (configuration not stated), the TGI is greater than 100 µM in assay [1]; 25.7 µM in assay [2]; greater than 100 µM in assay [3]; greater than 100 µM in assay [4]; 42.5 µM in assay [5]; greater than 100 µM in [6]. For the same molecule, the TGI in assay [7] is greater than 100 µM; in assay [8], 98.4 µM; in assay [9], 26.4 µM; in [10] it was greater than 100 µM; in assay [11], greater than 100 µM.
Consider `CN1CN(c2ccccc2)C2(CCN(CCC3COc4ccccc4O3)CC2)C1=O` (configuration not stated), for which the TGI in [1] is 83.9 µM; in assay [2], 89.4 µM; in assay [3], 70.8 µM; in [4] it was 34.2 µM; in assay [5] it was 77.4 µM; in assay [6] it was 50.4 µM. In addition, the TGI in [7] is 47.3 µM; in assay [8] it was 49.6 µM; in [9], greater than 100 µM; in [10] it was 45.9 µM; in [11] it was 37.2 µM.
Regarding `C[C@@H](NC(=O)c1ccc(CNC(=O)/C=C/c2cccc(Oc3ccccc3)c2)cc1)c1ccccc1`, the TGI in [1] is greater than 100 µM; in assay [2] it was greater than 100 µM; in [3], greater than 52.2 µM; in assay [4] it was greater than 100 µM; in assay [5] it was greater than 100 µM; in assay [6], greater than 100 µM. The TGI in [7] is greater than 100 µM; in assay [8], greater than 100 µM; in [9] it was 35.4 µM; in [10] it was greater than 100 µM; in [11], greater than 100 µM.
`O=C1C=CC(=O)c2c1ccc1c3ccccc3n(Cc3cccc([N+](=O)[O-])c3)c21`: the TGI was 49.1 µM in [1]; greater than 65.2 µM in [2]; greater than 100 µM in [3]; 21.2 µM in assay [4]; 23 µM in [5]; greater than 100 µM in assay [6]. The TGI in assay [7] was greater than 60.4 µM; in assay [8], greater than 90.3 µM; in assay [9], greater than 61.4 µM; in assay [10], greater than 100 µM; in assay [11], greater than 100 µM.
Consider `C=C(CN1CC2C[C@](C(=O)OC)(c3cc4ccccc4[nH]3)C1C(OC)C2OC)S(=O)(=O)c1ccccc1` (some centres not stated), for which the TGI was 11.3 µM in assay [1]; 7.21 µM in assay [2]; 24.3 µM in [3]; 6.14 µM in assay [4]; greater than 77.2 µM in assay [5]; 3.54 µM in assay [6]. Further, the TGI in [7] is 25.5 µM; in [8] it was 20.7 µM; in [9], 10 µM; in assay [10] it was 13.1 µM; in assay [11], 14.5 µM.
Turning to `CC(C)Cc1cc2c(cc1O)CCC1C2CC[C@@]2(C)C1CC[C@@H]2O` (some centres not stated), the TGI in [1] turned out to be 21.9 µM; in assay [2], 27.8 µM; in assay [3] it was 21.1 µM; in [4] it was 28.9 µM; in assay [5], 27.1 µM; in assay [6] it was 18.2 µM. For the same molecule, the TGI in assay [7] came to 28.8 µM; in assay [8], 20.9 µM; in [9], 23.6 µM; in assay [10], 34.2 µM; in assay [11] it was 20.2 µM.
`CCOC(=O)C(C(=S)SC)c1nn2c(=O)cc(C)nc2s1` (configuration not stated): the TGI in assay [1] is 34.2 µM; in assay [2], 32.4 µM; in [3] it was 43.7 µM; in assay [4], 47.5 µM; in [5], 77.5 µM; in assay [6], 29.4 µM. The TGI in assay [7] came out at 34.8 µM; in assay [8], 54.8 µM; in assay [9] it was 36.1 µM; in assay [10] it was 38.7 µM; in assay [11] it was 44.6 µM.
